Measured values taken from ChEMBL document CHEMBL4825664, “17-Hydroxybrevianamide N and Its N1-Methyl Derivative, Quinazolinones from a Soft-Coral-Derived Aspergillus sp. Fungus: 13S Enantiomers as the True Natural Products” (J Nat Prod, 2021).
The source made the active and inactive calls.

Experiments:
Format in all cases: functional, organism-based
Candida albicans = experiment: Antifungal activity against Candida albicans at 20 ug/ml; conditions: dose 20.0 µg/ml
Escherichia coli = experiment: Antibacterial activity against Escherichia coli at 20 ug/ml; conditions: dose 20.0 µg/ml
Influenza A virus = experiment: Antiviral activity against Influenza virus H1N1 at 100 uM
Pseudomonas aeruginosa = experiment: Antibacterial activity against Pseudomonas aeruginosa at 20 ug/ml; conditions: dose 20.0 µg/ml
Staphylococcus aureus = experiment: Antibacterial activity against Staphylococcus aureus at 20 ug/ml; conditions: dose 20.0 µg/ml

Measured: Activity

CN1C(=O)c2nc3ccccc3c(=O)n2[C@@H](Cc2ccccc2O)C1=O
inactive: all assays above

O=C1NC(=O)[C@H](Cc2ccccc2O)n2c1nc1ccccc1c2=O
inactive: all assays above

O=C1NC(=O)[C@@H](Cc2ccccc2O)n2c1nc1ccccc1c2=O
inactive: all assays above

CN1C(=O)c2nc3ccccc3c(=O)n2[C@H](Cc2ccccc2O)C1=O
inactive: all assays above
